According to patent US10588910B2, “Pharmaceutical composition comprising epidithiodioxopiperazine compound or derivative thereof, or pharmaceutically acceptable salt thereof, for preventing or treating pulmonary hypertension” (priority 2016, dated 2020):
Values joined by “and” are separate entries in the source; they are usually repeats but may differ in a detail not shown here. Identical values can stand only once.

Test system: rat models in which pulmonary arterial hypertension is induced by monocrotaline (MCT)
Assay: Monocrotaline-induced pulmonary arterial hypertension rat model: heart mass, RV/(LV+septum) ratio, pulmonary arterial wall thickness (H&E)
Assay type: in vivo, Male SD rats
Details: for hypertrophy of the right ventricle and pulmonary artery intimal thickening: animals with pulmonary arterial hypertension induced by monocrotaline; for hypertrophy of the right ventricle and pulmonary artery intimal thickening / therapeutic effect on pulmonary arterial hypertension: summary statement; for Total mass (heart) / LV + Septum (mass), Average / RV (right ventricle mass), Average / RV/LV + Septum, Average / Total mass (heart), Average / LV + Septum (mass) / RV (right ventricle mass) / RV/LV + Septum: 3 weeks; for Total mass (heart) / LV + Septum (mass) / RV (right ventricle mass) / RV/LV + Septum: individual rats; for LV + Septum (mass), Average / RV (right ventricle mass), Average / RV/LV + Septum, Average / Total mass (heart), Average: group average
Procedure: Male SD rats weighing approximately 210 g were used as animal models. In order to induce pulmonary arterial hypertension, a single intraperitoneal injection of monocrotaline (MCT) at a dose of 60 mg/kg was carried out. Accordingly, the rat models in which pulmonary arterial hypertension is induced were maintained for 3 weeks while test drugs were administered or not administered, and then the rat models were sacrificed. Thereafter, the hearts were excised and analyzed.
Chaetocin (the compound of Formula 2), which is a representative epidithiodioxopiperazine compound, was administered as a test drug to the pulmonary arterial hypertension animal models prepared according to Preparation Example 1 above at each dose of 6 μg, 12 μg, and 30 μg every 3 days. Normal rats in which MCT is not administered were used as the control group; and rats in which pulmonary arterial hypertension is induced by administering only MCT were used as the MCT group. The control group and each experimental group consisted of 3 to 4 rats.
The hearts were excised as in Preparation Example 1, and the excised hearts were measured for their total mass. Thereafter, the right ventricle (RV) was separated and the masses of each of the right ventricle, left ventricle, and cardiac septum (LV+septum) were separately measured to calculate the ratio. The results of the measurement of each experimental animal, the normal rats (control group), the MCT group, and the experimental groups (chaetocin groups; MCT+(dose μg)) in which chaetocin is administered at each dose of 30 μg, 12 μg, and 6 μg are shown in order in Tables 1 to 5.
Further, the sizes of the excised entire hearts and separated right ventricles were visually observed (FIG. 1), and the thicknesses of the pulmonary arterial walls were measured by H&E staining (FIGS. 2 to 11). In addition, in order to visualize the difference in the heart and pulmonary artery according to the dose-dependent chaetocin administration after the pulmonary arterial hypertension induction in the pulmonary arterial hypertension model, the average values of the heart mass, the ratio of the right ventricle to the left ventricle, and the thickness of the pulmonary artery wall, which are calculated from the hearts excised from each animal model, are shown in FIGS. 12 to 14, respectively. […]

[1] = MCT rats, chaetocin 6 μg every 3 days
[2] = MCT rats, chaetocin 12 μg every 3 days
[3] = MCT rats, chaetocin 30 μg every 3 days

With `CN1C(=O)C2SSC1C(=O)N2C` [5,7-Dimethyl-2,3-dithia-5,7-diazabicyclo[2.2.2]octane-6,8-dione] the “hypertrophy of the right ventricle and pulmonary artery intimal thickening” value was “reduced to a level similar to normal” and the “therapeutic effect on pulmonary arterial hypertension” value was “excellent therapeutic effect”.
In the case of `CN1C(=O)C23CC4(C56CC78SSC(CO)(C(=O)N7C5Nc5ccccc56)N(C)C8=O)c5ccccc5NC4N2C(=O)C1(CO)SS3` (stereo not shown) [chaetocin], the “Total mass (heart)” value (MCT 60 mg/kg i.p. rats, chaetocin 30 μg every 3 days) was 1185 mg and 865 mg and 1135 mg and 1258 mg, the “LV + Septum (mass), Average” value [1] was 718.3 mg and the “RV (right ventricle mass), Average” value [1] was 190.0 mg. For the same molecule, the “RV/LV + Septum, Average” value [1] was 0.26, the “Total mass (heart), Average” value [1] was 908.3 mg and the “LV + Septum (mass)” value [1] was 732 mg and 681 mg and 742 mg. For the same molecule, the “RV (right ventricle mass)” value [1] was 190 mg and 175 mg and 205 mg, the “RV/LV + Septum” value [1] was 0.26 (2×) and 0.28 and the “Total mass (heart)” value [1] was 922 mg and 856 mg and 947 mg. For the same molecule, the “LV + Septum (mass), Average” value [2] was 935.7 mg, the “RV (right ventricle mass), Average” value [2] was 259.0 mg and the “RV/LV + Septum, Average” value [2] was 0.28. For the same molecule, the “Total mass (heart), Average” value [2] was 1194.7 mg, the “LV + Septum (mass)” value [2] was 913 mg and 968 mg and 926 mg and the “RV (right ventricle mass)” value [2] was 261 mg and 295 mg and 221 mg. For the same molecule, the “RV/LV + Septum” value [2] was 0.29 and 0.30 and 0.24, the “Total mass (heart)” value [2] was 1174 mg and 1263 mg and 1147 mg and the “LV + Septum (mass), Average” value [3] was 870.8 mg. For the same molecule, the “RV (right ventricle mass), Average” value [3] was 240.0 mg, the “RV/LV + Septum, Average” value [3] was 0.3 and the “Total mass (heart), Average” value [3] was 1110.8 mg. For the same molecule, the “LV + Septum (mass)” value [3] was 921 mg and 689 mg and 874 mg and 999 mg, the “RV (right ventricle mass)” value [3] was 264 mg and 176 mg and 261 mg and 259 mg and the “RV/LV + Septum” value [3] was 0.29 and 0.26 (2×) and 0.30. The “hypertrophy of the right ventricle and pulmonary artery intimal thickening” value was “reduced to a level similar to normal” and the “therapeutic effect on pulmonary arterial hypertension” value was “excellent therapeutic effect”.
